According to ChEMBL document CHEMBL1201862, “PubChem BioAssay data set” (2004):
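Values below derive from 48-hour exposures of cells grown in 96-well plates, with endpoints linearly interpolated between the two concentrations bracketing the appropriate inhibition level. At the GI50, growth is halved.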 Calls of active or inactive are those of the source. Rule as the data show it: active = GI50 up to about 1.1 µM and inactive = higher.

Key:
Assay in all cases: inhibition of tumour cell growth, NCI panel, 48 h
HL-60 = tested on: HL-60
OVCAR-3 = tested on: OVCAR-3
SN12C = tested on: SN12C
UACC-257 = tested on: UACC-257
NCI/ADR-RES = tested on: NCI/ADR-RES
NCI-H522 = tested on: NCI-H522
SF-295 = tested on: SF-295
TK-10 = tested on: TK-10
NCI-H23 = tested on: NCI-H23
EKVX = tested on: EKVX
SF-268 = tested on: SF-268
SK-MEL-5 = tested on: SK-MEL-5
UO-31 = tested on: UO-31
M14 = tested on: M14
UACC-62 = tested on: UACC-62
HCC 2998 = tested on: HCC 2998
SNB-19 = tested on: SNB-19
KM12 = tested on: KM12
SF-539 = tested on: SF-539
SR = tested on: SR

Measured: GI50

CN(C)Cc1cc(O)c(O)c(CN(C)C)c1
inactive: HL-60 24.8 µM | OVCAR-3 36.7 µM | SN12C 36.9 µM | UACC-257 17.3 µM | NCI/ADR-RES 19.3 µM | NCI-H522 30.3 µM | SF-295 47 µM | TK-10 37.5 µM | NCI-H23 37 µM | EKVX 16.4 µM | SF-268 35.4 µM | SK-MEL-5 29.4 µM | UO-31 25.9 µM | M14 22.7 µM | UACC-62 29.5 µM | HCC 2998 29 µM | SNB-19 50.9 µM | KM12 94.2 µM

CNC1NC(=O)c2ccccc2N1Cc1ccc(F)cc1 (stereo unspecified)
inactive: HL-60 > 100 µM | OVCAR-3 > 100 µM | SN12C > 100 µM | UACC-257 > 100 µM | NCI/ADR-RES > 100 µM | NCI-H522 > 100 µM | SF-295 > 100 µM | TK-10 > 100 µM | NCI-H23 > 100 µM | SF-539 > 100 µM | EKVX > 100 µM | SF-268 > 100 µM | SK-MEL-5 > 100 µM | UO-31 11.1 µM | M14 > 100 µM | UACC-62 > 100 µM | HCC 2998 > 100 µM | SNB-19 > 100 µM | KM12 > 100 µM

COc1ccc(NC(=S)Nc2cc(C)ccn2)cc1
inactive: HL-60 > 100 µM | UACC-257 > 100 µM | NCI/ADR-RES 28.6 µM | TK-10 > 100 µM | NCI-H23 > 100 µM | SF-539 > 100 µM | EKVX > 100 µM | SF-268 > 100 µM | SK-MEL-5 > 100 µM | UO-31 > 100 µM | UACC-62 > 100 µM | SR > 100 µM | HCC 2998 > 100 µM | SNB-19 > 100 µM | KM12 > 100 µM

CC1=C([S+]([O-])c2ccc(C)cc2)CCC2(CCCCO2)O1 (stereo unspecified)
inactive: HL-60 23.3 µM | OVCAR-3 > 100 µM | SN12C > 100 µM | UACC-257 > 100 µM | NCI/ADR-RES > 100 µM | NCI-H522 > 100 µM | SF-295 > 100 µM | TK-10 > 100 µM | NCI-H23 > 100 µM | EKVX > 100 µM | SF-268 > 100 µM | SK-MEL-5 33.3 µM | UO-31 > 100 µM | UACC-62 > 100 µM | HCC 2998 > 100 µM | SNB-19 > 100 µM | KM12 > 100 µM

CC(=O)OCCn1c(Cc2ccc(Cl)cc2)nn(C(C)=O)c1=O
inactive: HL-60 > 100 µM | OVCAR-3 > 100 µM | SN12C > 100 µM | UACC-257 > 100 µM | NCI/ADR-RES > 100 µM | NCI-H522 > 100 µM | SF-295 > 100 µM | TK-10 > 100 µM | NCI-H23 > 100 µM | SF-539 > 100 µM | EKVX > 100 µM | SF-268 > 100 µM | SK-MEL-5 > 100 µM | UO-31 > 100 µM | M14 > 100 µM | UACC-62 > 100 µM | HCC 2998 > 100 µM | SNB-19 > 100 µM | KM12 > 100 µM

O=C(N/N=C/c1ccc(Cl)cc1)c1cc(I)cc(I)c1O
inactive: HL-60 > 100 µM | OVCAR-3 > 100 µM | SN12C > 100 µM | UACC-257 > 100 µM | NCI/ADR-RES > 100 µM | SF-295 > 100 µM | TK-10 > 100 µM | NCI-H23 > 100 µM | SF-539 > 100 µM | EKVX > 100 µM | SK-MEL-5 > 100 µM | UO-31 > 100 µM | M14 > 100 µM | SR 76.6 µM | SNB-19 > 100 µM | KM12 > 100 µM

O=S(=O)(O)c1ccc(O)c2ncc(Cl)cc12
inactive: OVCAR-3 > 100 µM | SN12C > 100 µM | UACC-257 > 100 µM | NCI/ADR-RES > 100 µM | SF-295 > 100 µM | NCI-H23 > 100 µM | SF-539 > 100 µM | EKVX > 100 µM | SK-MEL-5 > 100 µM | UO-31 > 100 µM | M14 > 100 µM | UACC-62 > 100 µM | SR > 100 µM | HCC 2998 > 100 µM | SNB-19 > 100 µM | KM12 > 100 µM

COC(=O)[C@@H]1[C@H]2CC[C@]3(C)[C@@H](OC(C)=O)CC[C@H]3[C@@H]2CC[C@H]1C(C)=O
inactive: HL-60 > 100 µM | OVCAR-3 > 100 µM | SN12C > 100 µM | UACC-257 > 100 µM | NCI/ADR-RES > 100 µM | NCI-H522 > 100 µM | SF-295 > 100 µM | TK-10 > 100 µM | NCI-H23 > 100 µM | SF-539 > 100 µM | EKVX > 100 µM | SF-268 > 100 µM | SK-MEL-5 > 100 µM | UO-31 > 100 µM | M14 > 100 µM | UACC-62 > 100 µM | HCC 2998 > 100 µM | SNB-19 > 100 µM | KM12 > 100 µM

Cc1nc(-c2ccc([N+](=O)[O-])cc2)cn2c1nc1ccccc12
inactive: HL-60 > 100 µM | OVCAR-3 > 100 µM | SN12C > 100 µM | UACC-257 > 100 µM | NCI/ADR-RES > 100 µM | SF-295 76.9 µM | TK-10 97.5 µM | NCI-H23 > 100 µM | SF-539 > 100 µM | EKVX > 100 µM | SF-268 > 100 µM | UO-31 > 100 µM | M14 70.3 µM | UACC-62 15.9 µM | SR > 100 µM | SNB-19 65.8 µM | KM12 > 100 µM

C#Cc1cc(Br)c(OC(=O)C(C)(C)C)c(-c2cc(C#C)cc(Br)c2OC(=O)C(C)(C)C)c1
inactive: HL-60 6.98 µM | OVCAR-3 80 µM | SN12C 53 µM | UACC-257 36.1 µM | NCI/ADR-RES > 100 µM | NCI-H522 32.5 µM | SF-295 30.5 µM | TK-10 > 100 µM | NCI-H23 30.5 µM | SF-539 64.6 µM | EKVX 31.2 µM | SF-268 50 µM | SK-MEL-5 37.6 µM | M14 43.7 µM | UACC-62 81.5 µM | HCC 2998 24.4 µM | SNB-19 43.9 µM | KM12 37.9 µM

CC1=C(C(=O)NC(C)(C)C)CC(C(=O)NC(C)(C)C)C(C)N1 (stereo unspecified)
inactive: HL-60 > 100 µM | OVCAR-3 > 100 µM | SN12C > 100 µM | UACC-257 > 100 µM | NCI/ADR-RES > 100 µM | NCI-H522 > 100 µM | SF-295 > 100 µM | TK-10 > 100 µM | NCI-H23 > 100 µM | SF-539 > 100 µM | EKVX > 100 µM | SF-268 > 100 µM | SK-MEL-5 > 100 µM | UO-31 > 100 µM | M14 > 100 µM | UACC-62 > 100 µM | HCC 2998 > 100 µM | SNB-19 85.1 µM | KM12 > 100 µM

O=c1[nH][nH]c(=O)n1/N=C/c1ccccc1
inactive: HL-60 > 100 µM | OVCAR-3 > 100 µM | SN12C > 100 µM | UACC-257 > 100 µM | NCI/ADR-RES > 100 µM | SF-295 > 100 µM | TK-10 > 100 µM | NCI-H23 > 100 µM | SF-539 > 100 µM | EKVX > 100 µM | SF-268 > 100 µM | SK-MEL-5 > 100 µM | UO-31 > 100 µM | M14 > 100 µM | UACC-62 > 100 µM | SR > 100 µM | SNB-19 > 100 µM | KM12 > 100 µM

COc1cc(COC(=O)N2CCCCC2C(=O)O)c([N+](=O)[O-])cc1OC (stereo unspecified)
inactive: HL-60 > 100 µM | OVCAR-3 > 100 µM | SN12C > 100 µM | UACC-257 > 100 µM | NCI/ADR-RES > 100 µM | SF-295 > 100 µM | TK-10 > 100 µM | NCI-H23 > 100 µM | SF-539 > 100 µM | EKVX > 100 µM | SF-268 > 100 µM | SK-MEL-5 > 100 µM | UO-31 > 100 µM | M14 > 100 µM | UACC-62 > 100 µM | SR > 100 µM | HCC 2998 > 100 µM | SNB-19 > 100 µM | KM12 > 100 µM

COc1ccc(OC)c2c1C1CCC(=O)N1CN2C(C)=O (stereo unspecified)
inactive: HL-60 > 100 µM | OVCAR-3 > 100 µM | SN12C > 100 µM | UACC-257 > 100 µM | NCI/ADR-RES > 100 µM | NCI-H522 > 100 µM | SF-295 > 100 µM | TK-10 > 100 µM | NCI-H23 > 100 µM | SF-539 > 100 µM | EKVX > 100 µM | SF-268 75.5 µM | SK-MEL-5 > 100 µM | UO-31 > 100 µM | M14 > 100 µM | UACC-62 > 100 µM | HCC 2998 > 100 µM | SNB-19 > 100 µM | KM12 > 100 µM

NCC(O)CSCc1ccc(Cl)cc1 (stereo unspecified)
inactive: HL-60 > 100 µM | OVCAR-3 > 100 µM | SN12C > 100 µM | UACC-257 > 100 µM | NCI/ADR-RES > 100 µM | NCI-H522 > 100 µM | SF-295 > 100 µM | TK-10 > 100 µM | NCI-H23 > 100 µM | SF-268 > 100 µM | SK-MEL-5 > 100 µM | UO-31 > 100 µM | M14 > 100 µM | UACC-62 > 100 µM | HCC 2998 > 100 µM | SNB-19 > 100 µM | KM12 > 100 µM
